Measurements from the supplement of paper PMC10307832.

What was measured:
Test in all cases: relative viability (nuclei count vs DMSO), 5 days (fraction); higher = more cells survive
CAL-12T = system: CAL-12T
Procedure, shortened: (§1)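 Five library-drug doses in √10 steps were combined with a fixed anchor-drug dose, or a single drug was given alone, by pin tool to lung cancer cell lines in 1536-well plates the day after seeding. Nuclei were stained and counted after 5 days. Relative viability is the nuclei count in treated wells over that in vehicle wells, taken as the median of duplicate plates.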

EKVX = system: EKVX
Procedure, shortened: as §1

H3255 = system: H3255
Procedure, shortened: as §1

HCC-15 = system: HCC-15
Procedure, shortened: as §1

HCC-827 = system: HCC-827
Procedure, shortened: as §1

LCLC-97TM1 = system: LCLC-97TM1
Procedure, shortened: as §1

LK-2 = system: LK-2
Procedure, shortened: as §1

NCI-H1355 = system: NCI-H1355
Procedure, shortened: as §1

NCI-H1563 = system: NCI-H1563
Procedure, shortened: as §1

NCI-H1650 = system: NCI-H1650
Procedure, shortened: as §1

NCI-H1734 = system: NCI-H1734
Procedure, shortened: as §1

NCI-H1755 = system: NCI-H1755
Procedure, shortened: as §1

NCI-H1975 = system: NCI-H1975
Procedure, shortened: as §1

NCI-H2228 = system: NCI-H2228
Procedure, shortened: as §1

NCI-H2342 = system: NCI-H2342
Procedure, shortened: as §1

NCI-H2405 = system: NCI-H2405
Procedure, shortened: as §1

NCI-H322M = system: NCI-H322M
Procedure, shortened: as §1

NCI-H520 = system: NCI-H520
Procedure, shortened: as §1

NCI-H661 = system: NCI-H661
Procedure, shortened: as §1

PC-14 = system: PC-14
Procedure, shortened: as §1

PC-3 [JPC-3] = system: PC-3 [JPC-3]
Procedure, shortened: as §1

RERF-LC-KJ = system: RERF-LC-KJ
Procedure, shortened: as §1

## Nc1ccn([C@@H]2O[C@H](CO)[C@@H](O)[C@@H]2O)c(=O)n1 [Cytarabine] + N=C(N)NC(=N)NCCc1ccccc1 [Phenformin] (partner 250 µM)
CAL-12T; first compound 0.005 µM
  relative viability: 0.524
CAL-12T; first compound 0.01581 µM
  relative viability: 0.489
CAL-12T; first compound 0.05 µM
  relative viability: 0.638
CAL-12T; first compound 0.1581 µM
  relative viability: 0.283
CAL-12T; first compound 0.5 µM
  relative viability: 0.18
EKVX; first compound 0.005 µM
  relative viability: 0.217
EKVX; first compound 0.01581 µM
  relative viability: 0.192
EKVX; first compound 0.05 µM
  relative viability: 0.172
EKVX; first compound 0.1581 µM
  relative viability: 0.211
EKVX; first compound 0.5 µM
  relative viability: 0.207
H3255; first compound 0.005 µM
  relative viability: 0.301
H3255; first compound 0.01581 µM
  relative viability: 0.336
H3255; first compound 0.05 µM
  relative viability: 0.296
H3255; first compound 0.1581 µM
  relative viability: 0.25
H3255; first compound 0.5 µM
  relative viability: 0.273
HCC-15; first compound 0.005 µM
  relative viability: 0.454
HCC-15; first compound 0.01581 µM
  relative viability: 0.436
HCC-15; first compound 0.05 µM
  relative viability: 0.516
HCC-15; first compound 0.1581 µM
  relative viability: 0.349
HCC-15; first compound 0.5 µM
  relative viability: 0.31
HCC-827; first compound 0.005 µM
  relative viability: 0.321
HCC-827; first compound 0.01581 µM
  relative viability: 0.258
HCC-827; first compound 0.05 µM
  relative viability: 0.195
HCC-827; first compound 0.1581 µM
  relative viability: 0.141
HCC-827; first compound 0.5 µM
  relative viability: 0.158
LCLC-97TM1; first compound 0.005 µM
  relative viability: 0.426
LCLC-97TM1; first compound 0.01581 µM
  relative viability: 0.34
LCLC-97TM1; first compound 0.05 µM
  relative viability: 0.354
LCLC-97TM1; first compound 0.1581 µM
  relative viability: 0.201
LCLC-97TM1; first compound 0.5 µM
  relative viability: 0.168
LK-2; first compound 0.005 µM
  relative viability: 0.357
LK-2; first compound 0.01581 µM
  relative viability: 0.247
LK-2; first compound 0.05 µM
  relative viability: 0.288
LK-2; first compound 0.1581 µM
  relative viability: 0.149
LK-2; first compound 0.5 µM
  relative viability: 0.196
NCI-H1355; first compound 0.005 µM
  relative viability: 0.353
NCI-H1355; first compound 0.01581 µM
  relative viability: 0.428
NCI-H1355; first compound 0.05 µM
  relative viability: 0.382
NCI-H1355; first compound 0.1581 µM
  relative viability: 0.254
NCI-H1355; first compound 0.5 µM
  relative viability: 0.261
NCI-H1563; first compound 0.005 µM
  relative viability: 0.548
NCI-H1563; first compound 0.01581 µM
  relative viability: 0.642
NCI-H1563; first compound 0.05 µM
  relative viability: 0.706
NCI-H1563; first compound 0.1581 µM
  relative viability: 0.56
NCI-H1563; first compound 0.5 µM
  relative viability: 0.567
NCI-H1650; first compound 0.005 µM
  relative viability: 0.386
NCI-H1650; first compound 0.01581 µM
  relative viability: 0.263
NCI-H1650; first compound 0.05 µM
  relative viability: 0.252
NCI-H1650; first compound 0.1581 µM
  relative viability: 0.177
NCI-H1650; first compound 0.5 µM
  relative viability: 0.125
NCI-H1734; first compound 0.005 µM
  relative viability: 0.322
NCI-H1734; first compound 0.01581 µM
  relative viability: 0.219
NCI-H1734; first compound 0.05 µM
  relative viability: 0.191
NCI-H1734; first compound 0.1581 µM
  relative viability: 0.155
NCI-H1734; first compound 0.5 µM
  relative viability: 0.155
NCI-H1755; first compound 0.005 µM
  relative viability: 0.621
NCI-H1755; first compound 0.01581 µM
  relative viability: 0.413
NCI-H1755; first compound 0.05 µM
  relative viability: 0.466
NCI-H1755; first compound 0.1581 µM
  relative viability: 0.274
NCI-H1755; first compound 0.5 µM
  relative viability: 0.236
NCI-H1975; first compound 0.005 µM
  relative viability: 0.331
NCI-H1975; first compound 0.01581 µM
  relative viability: 0.344
NCI-H1975; first compound 0.05 µM
  relative viability: 0.31
NCI-H1975; first compound 0.1581 µM
  relative viability: 0.193
NCI-H1975; first compound 0.5 µM
  relative viability: 0.177
NCI-H2228; first compound 0.005 µM
  relative viability: 0.25
NCI-H2228; first compound 0.01581 µM
  relative viability: 0.197
NCI-H2228; first compound 0.05 µM
  relative viability: 0.182
NCI-H2228; first compound 0.1581 µM
  relative viability: 0.118
NCI-H2228; first compound 0.5 µM
  relative viability: 0.112
NCI-H2342; first compound 0.005 µM
  relative viability: 0.543
NCI-H2342; first compound 0.01581 µM
  relative viability: 0.57
NCI-H2342; first compound 0.05 µM
  relative viability: 0.482
NCI-H2342; first compound 0.1581 µM
  relative viability: 0.449
NCI-H2342; first compound 0.5 µM
  relative viability: 0.404
NCI-H2405; first compound 0.005 µM
  relative viability: 0.387
NCI-H2405; first compound 0.01581 µM
  relative viability: 0.34
NCI-H2405; first compound 0.05 µM
  relative viability: 0.288
NCI-H2405; first compound 0.1581 µM
  relative viability: 0.238
NCI-H2405; first compound 0.5 µM
  relative viability: 0.258
NCI-H322M; first compound 0.005 µM
  relative viability: 0.704
NCI-H322M; first compound 0.01581 µM
  relative viability: 0.614
NCI-H322M; first compound 0.05 µM
  relative viability: 0.53
NCI-H322M; first compound 0.1581 µM
  relative viability: 0.372
NCI-H322M; first compound 0.5 µM
  relative viability: 0.337
NCI-H520; first compound 0.005 µM
  relative viability: 0.558
NCI-H520; first compound 0.01581 µM
  relative viability: 0.314
NCI-H520; first compound 0.05 µM
  relative viability: 0.658
NCI-H520; first compound 0.1581 µM
  relative viability: 0.383
NCI-H520; first compound 0.5 µM
  relative viability: 0.323
NCI-H661; first compound 0.005 µM
  relative viability: 0.264
NCI-H661; first compound 0.01581 µM
  relative viability: 0.254
NCI-H661; first compound 0.05 µM
  relative viability: 0.239
NCI-H661; first compound 0.1581 µM
  relative viability: 0.23
NCI-H661; first compound 0.5 µM
  relative viability: 0.237
PC-14; first compound 0.005 µM
  relative viability: 0.499
PC-14; first compound 0.01581 µM
  relative viability: 0.316
PC-14; first compound 0.05 µM
  relative viability: 0.259
PC-14; first compound 0.1581 µM
  relative viability: 0.0817
PC-14; first compound 0.5 µM
  relative viability: 0.0908
PC-3 [JPC-3]; first compound 0.005 µM
  relative viability: 0.493
PC-3 [JPC-3]; first compound 0.01581 µM
  relative viability: 0.468
PC-3 [JPC-3]; first compound 0.05 µM
  relative viability: 0.418
PC-3 [JPC-3]; first compound 0.1581 µM
  relative viability: 0.346
PC-3 [JPC-3]; first compound 0.5 µM
  relative viability: 0.358
RERF-LC-KJ; first compound 0.005 µM
  relative viability: 0.381
RERF-LC-KJ; first compound 0.01581 µM
  relative viability: 0.369
RERF-LC-KJ; first compound 0.05 µM
  relative viability: 0.308
RERF-LC-KJ; first compound 0.1581 µM
  relative viability: 0.298
RERF-LC-KJ; first compound 0.5 µM
  relative viability: 0.274
